According to publication PMC9907135 (Proceedings of the National Academy of Sciences of the …, 2022):

Experiments:
PD-L1:PD-1 [1] = molecular target: T1, PD-L1:PD-1 (Homo sapiens, UniProt Q9NZQ7); conditions: SPR ABA competition, 10 μM compound, 400 nM PD-1
Target sequence in this assay (Q9NZQ7 18-239): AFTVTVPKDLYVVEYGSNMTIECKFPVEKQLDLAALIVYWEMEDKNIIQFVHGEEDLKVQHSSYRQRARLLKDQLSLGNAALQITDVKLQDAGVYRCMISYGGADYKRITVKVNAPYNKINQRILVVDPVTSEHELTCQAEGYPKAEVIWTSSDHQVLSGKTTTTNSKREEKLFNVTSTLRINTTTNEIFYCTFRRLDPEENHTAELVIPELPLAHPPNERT
PD-L1:PD-1 [2] = molecular target: T1, PD-L1:PD-1; conditions: competition ELISA; n = 2
Target sequence in this assay (Q9NZQ7 19-238 limits assumed): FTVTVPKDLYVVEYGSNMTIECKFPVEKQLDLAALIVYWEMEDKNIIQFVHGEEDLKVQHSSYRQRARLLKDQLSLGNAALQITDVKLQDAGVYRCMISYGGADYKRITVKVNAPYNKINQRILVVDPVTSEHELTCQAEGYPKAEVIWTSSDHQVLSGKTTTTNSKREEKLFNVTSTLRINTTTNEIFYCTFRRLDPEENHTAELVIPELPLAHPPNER

PD-L1 = PD-L1 (Homo sapiens, UniProt Q9NZQ7); conditions: TR-FRET; n = 3 for FP peptides, n = 2 for BMS-1001
RNF31 UBA domain = RNF31 UBA domain (Homo sapiens, UniProt Q96EP0); experiment: biochemical
RNF31 UBA domain, sequence (Q96EP0 480-639): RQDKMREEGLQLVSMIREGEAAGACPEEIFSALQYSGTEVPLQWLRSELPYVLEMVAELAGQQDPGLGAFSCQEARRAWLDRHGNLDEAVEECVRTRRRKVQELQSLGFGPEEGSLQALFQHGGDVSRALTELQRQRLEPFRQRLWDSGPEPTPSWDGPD

PD-L1, sequence (Q9NZQ7 18-239): as the sequence (Q9NZQ7 18-239) above

SMILES	Competition with PD-1 for binding to PD-L1 (PD-L1:PD-1 [1])	Inhibition of PD-L1:PD-1 binding (PD-L1:PD-1 [2])	PD-L1 dimerization in solution (PD-L1)	koff (RNF31 UBA domain; read-out: RNF31 UBA Binding koff) [s⁻¹]	kon (RNF31 UBA domain; read-out: RNF31 UBA Binding kon) [M⁻¹ s⁻¹]
Cc1cc(CN[C@H](CO)C(=O)O)c(OCc2cccc(C#N)c2)cc1OCc1cccc(-c2ccc3c(c2)OCCO3)c1C [BMS-1001]	compete more potently	inhibits PD-L1:PD-1 binding	clear evidence of PD-L1 dimerization		
CC[C@H](C)[C@H](NC(=O)[C@H](C)NC(=O)[C@@H]1CSCC(=O)Nc2ccc(cc2)NC(=O)CSC[C@H](NC(=O)[C@H](CCCNC(=N)N)NC(=O)[C@H](CCC(N)=O)NC(=O)[C@H](CCSC)NC(=O)[C@H](C)NC(=O)[C@@H]2CCCN2C(=O)[C@H](CC(=O)O)NC(C)=O)C(=O)N[C@@H](Cc2ccccc2)C(=O)N[C@@H](CO)C(=O)N[C@@H](C)C(=O)N[C@@H](C)C(=O)N[C@@H](C(C)C)C(=O)N[C@@H](Cc2ccc(O)cc2)C(=O)N1)C(=O)N[C@@H](CO)C(N)=O [FP06655]				0.052	1.4e+06
